Assay results as given in patent US11331283B2, “Pharmaceutical compositions comprising cinacalcet hydrochloride and one or more binders” (UNICHEM LABORATORIES LTD, priority 2017, dated 2022).

Assay: Particle size distribution of micronized cinacalcet hydrochloride by Malvern Mastersizer
Format: physicochemical
Details: particle size after jet milling
Protocol: Micronization of cinacalcet hydrochloride was carried out by Jet Milling. Particle size of micronized cinacalcet hydrochloride was measured with Malvern Mastersizer.

Structure (SMILES)	D10	D50	D90
C[C@@H](NCCCc1cccc(C(F)(F)F)c1)c1cccc2ccccc12.Cl [Batch No 60002, N-[1-(R)-(−)-(1-naphthyl)ethyl]-3-[3(trifluoromethyl)phenyl]-1-aminopropane hydrochloride]	4.06 μm	9.58 μm	18.8 μm
C[C@@H](NCCCc1cccc(C(F)(F)F)c1)c1cccc2ccccc12.Cl [Batch No 70001, N-[1-(R)-(−)-(1-naphthyl)ethyl]-3-[3(trifluoromethyl)phenyl]-1-aminopropane hydrochloride]	2.66 μm	6.55 μm	13.4 μm
C[C@@H](NCCCc1cccc(C(F)(F)F)c1)c1cccc2ccccc12.Cl [Batch No 70002, N-[1-(R)-(−)-(1-naphthyl)ethyl]-3-[3(trifluoromethyl)phenyl]-1-aminopropane hydrochloride]	2.35 μm	6.81 μm	15.4 μm
C[C@@H](NCCCc1cccc(C(F)(F)F)c1)c1cccc2ccccc12.Cl [Micronized cinacalcet hydrochloride, N-[1-(R)-(−)-(1-naphthyl)ethyl]-3-[3(trifluoromethyl)phenyl]-1-aminopropane hydrochloride]	≤ 5 μm	≤ 10 μm	≤ 20 μm
